Results published in patent US10046060B2, “Co-administration of an agent linked to an internalization peptide with an anti-inflammatory” (NoNO Inc., priority 2007, dated 2018).
Entries after “also recorded” stand apart in the source; their conditions may differ. Ends that are not written are not given here.

Assays:
rats = assay: Mean arterial pressure (MAP) in rats after Tat peptides with or without anti-inflammatory agents; settings: 7.5 mg/kg bolus; FIG. 7
Beagle dogs [1] = assay: GLP cardiovascular telemetry study, escalating doses (CRM Study No. 691106); format: in vivo, dog
Procedure: In a GLP cardiovascular telemetry study in unrestrained conscious Beagle dogs (CRM Study No. 691106), 6 animals (3 males, 3 females) were administered escalating doses of Tat-NR2B9c (0.25, 1.0, or 5.0 mg/kg gross peptide), with a washout period of 3 days between dose levels. […] Moreover, the time-frame between the low dose (0.25 mg/kg) and the high dose (5.0 mg/kg) was about 6 days, i.e., of insufficient duration to allow the generation of an immune response. The effect is thus caused by a direct degranulation of mast cells causing histamine release.

humans = assay: Safety, Tolerability and Pharmacokinetic Study in humans: adverse events; format: in vivo, human
Procedure: We carried out a Safety, Tolerability and Pharmacokinetic Study of Tat-NR2B9c in humans. Subjects were either normal, healthy, non-smoking males or post-menopausal or surgically sterile female subjects with a minimum age of 18 years. The subjects were either administered Tat-NR2B9c, Lot #: 124-134-001B, or were given placebo (Phosphate Buffered Saline), Lot #: 124-134-001A, administered as an intravenous infusion (10±1 minutes). Four subjects were dosed in each of Cohorts 1 to 3, and 10 subjects were dosed in each of Cohorts 4 to 8. All 62 subjects completed the study. Treatment periods for each cohort were as follows: Cohort 1: Sep. 14, 2006; Cohort 2: Sep. 26, 2006; Cohort 3: Oct. 6, 2006; Cohort 4: Oct. 20, 2006; Cohort 5: Nov. 6, 2006; Cohort 6: Dec. 4, 2006; Cohort 7: Dec. 17, 2006; Cohort 8: Feb. 25, 2007.
The safety assessment was performed on all subjects who received at least 1 dose during the course of the study. The incidents of all adverse events (AEs) were tabulated by treatment and subject number. Absolute values for vital signs, electrocardiogram (ECG) parameters, laboratory parameters and physical examinations were also documented and values outside the nomial range were flagged. Shifts from baseline values were tabulated. AEs were documented using investigator and Medical Dictionary for Regulatory Activities (MedDRA) terms.

Sprague-Dawley rats = assay: Non-GLP blood pressure study in anesthetized rats at 50 mg/kg; format: in vivo, rat
Procedure: In one experiment, 5 male Sprague-Dawley rats received a 50 mg/kg Tat-NR2B9c bolus dose over 3 minutes. Blood pressure was monitored via a femora arterial catheter.

Beagle dogs [2] = assay: Non-GLP dose range study, single slow intravenous injection; format: in vivo, dog; settings: for Severity of angio-neurotic oedema and urticaria: 12.5 mg/kg
Procedure: A non-GLP study was conducted to examine a dose range for Tat-NR2B9c, administered to Beagle dogs by a single, slow intravenous injection. Two animals (one male and one female Beagle dog) were dosed intravenously with Tat-NR2B9c on seven occasions. There was a 3-4 day wash-out period between the doses. The first dose was given at 2.5 mg/kg. […] There was no reaction in the female dog. […] The third dose was given at 12.5 mg/kg. […] The reaction in the male dog was assessed to be moderate, and in the female animal, the reaction was mild. The next dose was set at 20.0 mg/kg. […] The animal was treated with i.v. administration of benadryl and dexamethasone. BP at 5 minutes post-dosing was recorded as 37/13 mm Hg (nomial BP in a dog is ˜160/90). A decision was made not to dose the female animal.
The next doses were given in order to better understand the type of reactions seen in preceding doses. The fifth and sixth doses were set at 2.5 and 5.0 mg/kg.

[3] = Maximum Tolerated Dose in preclinical animal trials, dogs; settings: dog, in vivo
Beagle dogs [4] = assay: GLP 14-day intravenous toxicity study (CRM Study No. 501448): clinical signs and plasma histamine; format: in vivo, dog
Procedure: Blood samples (approximately 1 mL) were collected from all animals on Days 1, 6 and 12 at predose, 5 and 15 minutes post injection. Blood samples were collected by venipuncture (jugular, saphenous and cephalic) into tubes containing EDTA. The samples were then centrifuged (within 30 minutes of collection) in a refrigerated centrifuge (ca. 4° C.) at 2700 rpm for 10 minutes. Plasma were separated into a second tube with the appropriate label and stored at −80° C. until analysis at CRM. Plasma samples were used for investigating histamine levels. Samples from animals dosed intravenously with Tat-NR2B9c were analyzed using a validated method.

Beagle dogs [5] = assay: GLP cardiovascular telemetry study at 10 mg/kg (CRM Study No. 691429); format: in vivo, dog
Procedure: To obtain detailed cardiovascular information at the highest dose level tested in the 14-day dog repeated-dose toxicity study (i.e., 10 mg/kg), an additional GLP cardiovascular telemetry study in unrestrained, conscious, Beagle dogs was performed (CRM Study No. 691429). Six animals (3 males, 3 females) received vehicle in the morning and 10 mg/kg Tat-NR2B9c in the afternoon of the same day (at least 4 hours between doses). […] The female animals used in this additional cardiovascular study were obtained from the Charles River colony and were non-nave animals that had been previously used in the first cardiovascular study for Tat-NR2B9c (CRM Study No. 691106).

YGRKKRRQRRRKLSSIESDV [Tat-NR2B9c]
Effect on MAP (printed MAT) after injection (rats): rapid and transient reduction; also recorded: reduction in blood pressure
Dogs with transient drop in blood pressure (Beagle dogs [1]; 5 mg/kg): 4 of 6
Duration of transient drop in blood pressure (Beagle dogs [1]; 5 mg/kg): approximately 30 minutes
Effects on blood pressure (Beagle dogs [1]; 0.25 or 1.0 mg/kg): No effects
AEs of the higher doses at the lower dose range (humans; 0.02 to 1.50 mg/kg): minimal or not present
Incidence of AEs vs lower dose groups and placebo (humans; 2.60 and 3.75 mg/kg dose groups): significantly more AEs; also recorded: higher
Serious Adverse Events (humans; all doses): No Serious Adverse Events (SAEs) were reported
Active treatment subjects with at least 1 AE (humans; all doses 0.02-3.75 mg/kg): 73.9%
Doses at which several AEs were frequently reported (humans; decreased blood pressure, paraesthesia, hypoaesthesia, erythema, rash, pruritus, dry mouth, nausea, feeling hot, flushing): ≥ 2.60 mg/kg
Subjects feeling hot (humans; subjects receiving Tat-NR2B9c): 28.3%
Subjects feeling hot (count) (humans; subjects receiving Tat-NR2B9c): 13/46
Subjects with dry mouth (humans; subjects receiving Tat-NR2B9c): 19.6%
Subjects with dry mouth (count) (humans; subjects receiving Tat-NR2B9c): 9/46
Subjects with flushing (humans; subjects receiving Tat-NR2B9c): 21.7%
Subjects with flushing (count) (humans; subjects receiving Tat-NR2B9c): 10/46
Subjects with pruritis (humans; subjects receiving Tat-NR2B9c): 26.1%
Subjects with pruritis (count) (humans; subjects receiving Tat-NR2B9c): 12/46
Mean arterial pressure (Sprague-Dawley rats; 50 mg/kg bolus over 3 minutes, all animals, FIG. 6): transient reductions in mean arterial pressure; also recorded: drop in blood pressure
Respiratory effects (Sprague-Dawley rats; rat, 50 mg/kg): decreased tidal volume, respiratory rate and derived minute volume
Reaction (Beagle dogs [2]; 5.0 mg/kg, female dog): no reaction
Reaction (Beagle dogs [2]; 5.0 mg/kg, male dog): moderate reaction
Vital signs (heart rate, blood pressure, respiratory rate and body temperature) (Beagle dogs [2]; 7.5 mg/kg, both animals): stayed within the normal physiological ranges
Reaction (Beagle dogs [2]; 7.5 mg/kg, female dog): no reaction
Reaction (Beagle dogs [2]; 7.5 mg/kg, male dog): angio-neurotic edema of the soft tissue of the head and urticaria type of reaction
Severity of angio-neurotic oedema and urticaria (Beagle dogs [2]; female dog): mild
Severity of angio-neurotic oedema and urticaria (Beagle dogs [2]; male dog): moderate
Reaction (Beagle dogs [2]; 20.0 mg/kg, male dog): went into shock
Blood pressure at 5 minutes post-dosing (Beagle dogs [2]; 20.0 mg/kg, male dog, treated with benadryl and dexamethasone): 37/13
Adverse reactions (Beagle dogs [2]; fifth dose 2.5 mg/kg): reddening of ear and face of the male dog
Signs of toxicity (Beagle dogs [2]; first dose 2.5 mg/kg, male and female dog): did not show any signs of toxicity
Conclusion of dose range study (Beagle dogs [2]; high doses): capable of inducing profound transient hypotension and urticaria-like skin reactions
MTD [3]: 12.5 mg/kg
Lethargy and unpalpable pulse as characterized by attending veterinarian (Beagle dogs [4]; 10 mg/kg daily i.v.): severe hypotensive reaction
Clinical signs (Beagle dogs [4]; 10 mg/kg daily i.v., 14 days, all animals): treatment-related clinical signs
Change of histamine levels during 14-day repeated dosing (Beagle dogs [4]; any dose level): no consistent increase in histamine levels
Plasma histamine levels (Beagle dogs [4]; immediately following the first administration, naive dogs): increased histamine levels
Time post-dose over which increases in heart rate were observed (Beagle dogs [5]): up to 15 minutes
Decreases in blood pressure values (Beagle dogs [5]; individual animals at 5 to 10 minutes post-dose): up to 62%
Time of maximum effect on heart rate (Beagle dogs [5]; males and females): 10 min
